According to PMC10610105, “Designing and Exploration of the Biological Potentials of Novel Centrosymmetric Heteroleptic Copper(II) Carboxylates” (Pharmaceuticals, 2023):
≈ marks a conversion by molar mass, not a printed value.

Legend:
α-amylase = α-amylase enzyme inhibition assay; format: biochemical, Saccharomyces cerevisiae; details: for IC50: α-amylase inhibition
Description: A reported protocol with slight modification was used to perform the α-amylase enzyme inhibition assay. A stock solution (1 unit/mL) was prepared by dissolving α-amylase solution from Saccharomyces cerevisiae in 50 mM potassium phosphate buffer (pH 6.8), and for the substrate, in the same buffer 20 mM p-nitrophenyl-α-D-glucopyranoside (PNG) was prepared. The assay was conducted in triplicate using 96-well plates. […] For the experiments, each well contained phosphate buffer 65 μL (50 mM, pH 6.8), PNG 25 μL, α-amylase enzyme 5 μL (0.05 U/mL), and test sample 5 μL. The plates were allowed to incubate at 37 °C for 30 min, followed by the addition of 100 μL sodium bicarbonate (0.5 mM) as a stopping agent.
By using a microplate reader (BioTek Elx-800, Winooski, VT, USA), absorbance was recorded at 405 nm. The percent inhibition was calculated using the formula: %Inhibition=Acontrol−Asample/Acontrol × 100 where Acontrol is the control absorbance and Asample is the sample absorbance.

[1] = Hydroxyl radical scavenging assay; details: for IC50: hydroxyl radical scavenging, read-out: IC50 (µM) ± SEM; for % Inhibition: hydroxyl radical
Description: (§1) DPPH and hydroxyl (•OH) radical scavenging assays based on spectroscopic measurements are simple in vitro methods used to evaluate the antioxidant potential of test compounds. The promising results of these assays could be exploited as preliminary tests in search of drugs with potential anticancer, anti-aging, and anti-inflammatory activities. Within this context, the abilities of the free ligand acid (HL) and synthesized complexes (1 and 2) to scavenge DPPH and hydroxyl radicals were determined in order to evaluate their potential antioxidant ability compared to that of vitamin C as a reference compound.
The hydroxyl radical scavenging activities of the free ligand acid and synthesized complexes (1 and 2) were evaluated according to a reported method. Different concentrations (15, 30, 60, 120, and 240 μM) of the free ligand acid and complexes were mixed with 0.4 M phosphate buffer (pH 6.6) (1000 μL), 0.1% hydrogen peroxide (100 μL), 3.7 mM o-phenanthroline (200 μL), and 7.5 mM ferrous sulfate (100 μL). The mixtures were diluted with distilled water to 3000 μL before incubating for 30 min at room temperature. The absorbance of mixtures was recorded at 510 nm using ascorbic acid as a standard.
The %scavenging was calculated using the following formula: %scavenging=As−Ac/Ab−As×100 where As, Ac, and Ab are the observed absorbance values of the sample, control, and blank, respectively.

[2] = test system: SS-DNA (salmon sperm DNA); assay: DNA binding study by viscometry; details: SS-DNA 87.72 μM, compound 5–30 μM, Ostwald viscometer
Description: The viscosity of the SS-DNA solution (87.72 μM) in the absence and the presence of complexes 1 and 2 (5–30 μM) was measured using an Ostwald viscometer. For accuracy, the readings were made in triplicate for each sample, and then an average flow rate was calculated. Data are presented as (η/ηo)^1/3 vs. binding ratio ® of [complex]/[DNA], where η is the relative viscosity of the complex-DNA adduct, and ηο is the relative viscosity of DNA alone. The relative viscosity values for SS-DNA in the presence (η) and the absence (ηο) of the complexes were calculated using the relation η = (t − to)/to, where t is the observed flow time in seconds.

[3] = DPPH free radical scavenging assay; details: for IC50: DPPH radical scavenging, read-out: IC50 (µM) ± SEM; for % Inhibition: DPPH
Description: as §1
The in vitro DPPH free radical scavenging activities of the free ligand acid and complexes 1 and 2 were assessed, as per a reported procedure with slight modification in the protocol.
Different concentrations (15, 30, 60, 120, and 240 μM) of the free ligand acid and complexes were mixed with 1000 μL of 255 μM DPPH solution made in ethanol. The mixture solutions were shaken and incubated in the dark for 30 min at room temperature. The absorbance of the solutions was measured at 518 nm using a UV-VIS spectrophotometer. Ascorbic acid of fixed concentration was used as a positive control. The readings were made in triplicate. Percentage inhibition of the test compounds was evaluated by using the formula: %scavenging=Ac−As/Ac×100 where Ac and As are the observed absorbance values of the control and the sample, respectively.

[4] = test system: SS-DNA (salmon sperm DNA); assay: DNA binding study by UV-visible absorption spectroscopy; details: complex-DNA interaction, calculated
Description: UV-visible absorption measurements can be used to monitor changes occurring in λmax values (red or blue shifts) and absorption intensity (hyper- or hypochromism) of either a test compound or DNA as a result of any possible interaction. These changes can be used to find some details about the mode of interaction of metal complexes with DNA [25]. In the present study, absorption titrations were made with a fixed concentration (200 μM) of complexes against varying concentrations (5-30 μM) of SS-DNA. The extent of complex-DNA binding was assessed by calculating intrinsic binding constant (Kb) values using the well-known Benesi-Hildebrand equation [26]. Ao/A-A0=ε[…]+1/Kb[DNA] where Kb is the binding constant, A is the absorbance of complex-DNA adduct, Ao is the absorbance of pure complex solution, [DNA] is the concentration of SS-DNA in mol/L, εH-G is the molar absorption co-efficient of each complex-DNA adduct, and εG is the molar absorption co-efficient of pure complex. […] Ao/A-Ao along the ordinate, as shown in Figure 3B and Figure 4B for complexes 1 and 2, respectively. […] The SS-DNA solution (ε = 6600 M^-1 cm^-1 at 260 nm) concentration was determined via absorption spectroscopy. The complex solutions (200 μM) were made in aqueous DMSO (1:4). […] To eliminate the absorbance of DNA, equivalent SS-DNA solutions were added to the complex and reference solutions. […]

In the case of `C[C@H]1O[C@H](O[C@H]2[C@H](O)[C@@H](O)[C@@H](O[C@H]3[C@H](O)[C@@H](O)C(O)O[C@@H]3CO)O[C@@H]2CO)[C@H](O)[C@@H](O)[C@@H]1N[C@H]1C=C(CO)[C@@H](O)[C@H](O)[C@H]1O` (stereo partly shown) [Acrabose, acarbose, reference compound], the “% α-Amylase Activity” value (α-amylase; concentration 31.25 µg/mL) is reported as 14.34%, the “% α-Amylase Activity” value (α-amylase; concentration 62.5 µg/mL) is reported as 26.42% and the “% α-Amylase Activity” value (α-amylase; concentration 125 µg/mL) is reported as 46.39%. The “% α-Amylase Activity” value (α-amylase; concentration 250 µg/mL) was 68.61% and the “% α-Amylase Activity” value (α-amylase; concentration 500 µg/mL) was 84.33%.
In the case of `O=C(O)Cc1ccc(F)c(F)c1` [HL, 3,4-difluorophenylacetic acid], the IC50 [1] is reported as 1771 ± 1.17 µM, the “% Inhibition” value ([1]; dose conc. 15 µM) is reported as 0.009% and the “% Inhibition” value ([1]; dose conc. 30 µM) is reported as 1.050%. The “% Inhibition” value ([1]; dose conc. 60 µM) was 1.070%, the “% Inhibition” value ([1]; dose conc. 120 µM) was 2.770% and the “% Inhibition” value ([1]; dose conc. 240 µM) was 6.660%. For the same molecule, the “effect on the relative viscosity of the DNA” value [2] was “no effect”, the IC50 [3] was 1010 ± 1.99 µM and the “% Inhibition” value ([3]; dose conc. 15 µM) was 1.09%. For the same molecule, the “% Inhibition” value ([3]; dose conc. 30 µM) was 3.05%, the “% Inhibition” value ([3]; dose conc. 60 µM) was 5.07% and the “% Inhibition” value ([3]; dose conc. 120 µM) was 7.77%. The “% Inhibition” value ([3]; dose conc. 240 µM) was 12.55%, the “% α-Amylase Activity” value (α-amylase; concentration 31.25 µg/mL) was 1.72% and the “% α-Amylase Activity” value (α-amylase; concentration 62.5 µg/mL) was 1.9%. The “% α-Amylase Activity” value (α-amylase; concentration 125 µg/mL) was 9.22%, the “% α-Amylase Activity” value (α-amylase; concentration 250 µg/mL) was 19.67% and the “% α-Amylase Activity” value (α-amylase; concentration 500 µg/mL) was 32.95%. The “IC50” value (α-amylase) was 728.17 µg/mL (≈ 4.23 mM).
For `O=C1O[C@H]([C@@H](O)CO)C(O)=C1O` [Vit. C, ascorbic acid, reference compound], the IC50 [1] was 162 ± 12.1 µM, the “% Inhibition” value ([1]; dose conc. 15 µM) was 6.78% and the “% Inhibition” value ([1]; dose conc. 30 µM) was 10.49%. The “% Inhibition” value ([1]; dose conc. 60 µM) was 16.87%, the “% Inhibition” value ([1]; dose conc. 120 µM) was 43.87% and the “% Inhibition” value ([1]; dose conc. 240 µM) was 70.55%. The IC50 [3] was 127 ± 14 µM, the “% Inhibition” value ([3]; dose conc. 15 µM) was 7.09% and the “% Inhibition” value ([3]; dose conc. 30 µM) was 15.09%. The “% Inhibition” value ([3]; dose conc. 60 µM) was 29.98%, the “% Inhibition” value ([3]; dose conc. 120 µM) was 58.09% and the “% Inhibition” value ([3]; dose conc. 240 µM) was 82.35%.
In the case of `Cc1ccccn1.Cc1ccccn1.O=C([O-])Cc1ccc(F)c(F)c1.O=C([O-])Cc1ccc(F)c(F)c1.O=C([O-])Cc1ccc(F)c(F)c1.O=C([O-])Cc1ccc(F)c(F)c1.[Cu+2].[Cu+2]` [complex 1, [Cu2(3,4-F2C6H3CH2COO)4(2-CH3py)2]], the IC50 [1] is reported as 283 ± 7.01 µM, the “% Inhibition” value ([1]; dose conc. 15 µM) is reported as 0.05% and the “% Inhibition” value ([1]; dose conc. 30 µM) is reported as 10.00%. The “% Inhibition” value ([1]; dose conc. 60 µM) was 15.04%, the “% Inhibition” value ([1]; dose conc. 120 µM) was 28.32% and the “% Inhibition” value ([1]; dose conc. 240 µM) was 39.99%. The “effect on the relative viscosity of the DNA” value [2] was “pronounced increase”, the IC50 [3] was 214 ± 7.77 µM and the “% Inhibition” value ([3]; dose conc. 15 µM) was 8.07%. The “% Inhibition” value ([3]; dose conc. 30 µM) was 15.77%, the “% Inhibition” value ([3]; dose conc. 60 µM) was 25.39% and the “% Inhibition” value ([3]; dose conc. 120 µM) was 39.00%. The “% Inhibition” value ([3]; dose conc. 240 µM) was 51.12%, the “% α-Amylase Activity” value (α-amylase; concentration 31.25 µg/mL) was 6.03% and the “% α-Amylase Activity” value (α-amylase; concentration 62.5 µg/mL) was 7.24%. For the same molecule, the “% α-Amylase Activity” value (α-amylase; concentration 125 µg/mL) was 22.24%, the “% α-Amylase Activity” value (α-amylase; concentration 250 µg/mL) was 41.12% and the “% α-Amylase Activity” value (α-amylase; concentration 500 µg/mL) was 51.22%. For the same molecule, the “IC50” value (α-amylase) was 437.73 µg/mL and the ΔG [4] was -6.979 kcal/mol.
With `Cc1cccnc1.Cc1cccnc1.O=C([O-])Cc1ccc(F)c(F)c1.O=C([O-])Cc1ccc(F)c(F)c1.O=C([O-])Cc1ccc(F)c(F)c1.O=C([O-])Cc1ccc(F)c(F)c1.[Cu+2].[Cu+2]` [complex 2, [Cu2(3,4-F2C6H3CH2COO)4(3-CH3py)2]] the IC50 [1] was 308 ± 6.89 µM, the “% Inhibition” value ([1]; dose conc. 15 µM) was 0.04% and the “% Inhibition” value ([1]; dose conc. 30 µM) was 1.30%. For the same molecule, the “% Inhibition” value ([1]; dose conc. 60 µM) was 14.50%, the “% Inhibition” value ([1]; dose conc. 120 µM) was 25.00% and the “% Inhibition” value ([1]; dose conc. 240 µM) was 35.99%. For the same molecule, the “effect on the relative viscosity of the DNA” value [2] was “pronounced increase”, the IC50 [3] was 365 ± 5.31 µM and the “% Inhibition” value ([3]; dose conc. 15 µM) was 4.045%. For the same molecule, the “% Inhibition” value ([3]; dose conc. 30 µM) was 5.150%, the “% Inhibition” value ([3]; dose conc. 60 µM) was 14.975% and the “% Inhibition” value ([3]; dose conc. 120 µM) was 21.500%. The “% Inhibition” value ([3]; dose conc. 240 µM) was 32.550%, the “% α-Amylase Activity” value (α-amylase; concentration 31.25 µg/mL) was 5.33% and the “% α-Amylase Activity” value (α-amylase; concentration 62.5 µg/mL) was 8.33%. The “% α-Amylase Activity” value (α-amylase; concentration 125 µg/mL) was 20.46%, the “% α-Amylase Activity” value (α-amylase; concentration 250 µg/mL) was 38.00% and the “% α-Amylase Activity” value (α-amylase; concentration 500 µg/mL) was 50.30%. The “IC50” value (α-amylase) was 455.32 µg/mL and the ΔG [4] was -7.808 kcal/mol.
